{"source": "patent US11427575B2", "about": "“Antitumor compound for activating JWA gene and degrading HER2, preparation method thereof, and application thereof” (SIMCERE PHARMACEUTICAL CO., LTD., priority 2019, dated 2022)", "key": {"[1]": {"test": "Serum biochemical indexes in tumor-bearing nude mice", "details": "particularly 100 mg/kg, vs blank control", "text": "A model of nude mice subcutaneously transplanted with human breast cancer cells was built with reference to the method of Example 16. The laboratory mice that have been modeled were anesthetized to determine whether damage occurred to the major organs in the mouse body. Whole blood was collected from the anesthetized mice, and the serum was separated and used to detect a change in the serum biochemical indexes using an automatic biochemistry analyzer."}, "[2]": {"system": "SKBR3 cells", "details": "SKBR3, Transwell, 0, 1, and 10 μL of JAC1, 12 h", "method": "(§1) BT474 and SKBR3 cells in the logarithmic growth phase were transferred into six-well plates at the cell density of 40%-50%. After the cells adhered to the walls of the plates, the cells were respectively incubated in […] of JAC1. Spreading gel in Transwell chamber: the day before the assay, a 24-well plate and a plurality of Transwell chambers were prepared, and 1 mg/mL fibronectin (FN) mother liquor was diluted 10 times to a final concentration of 100 μg/mL. The bottom of each Transwell chamber was coated with 50 μL of FN, placed on a clean bench to air-dry for 2 h, and cultured in an incubator overnight.\n(§2) On the day of the assay, the cultured cells were digested with 0.25% trypsin and resuspended in a serum-free medium in which the number of the cells were counted and the cell density was adjusted to 3×10^5 cells/mL. 100 μL of serum-free medium containing the cells was transferred onto the upper layer of each Transwell chamber, and 600 μL of mixture containing 10% FBS and 100 ng/mL EGF medium was added to the lower layer of each Transwell chamber. After incubation in an incubator for 12 h, the Transwell chambers were taken out, fixed with 95% methanol for 20 min, washed three times with phosphate-buffered saline (PBS), stained with crystal violet dye for 30 min, and washed three times with PBS. […]"}, "[3]": {"system": "BT474 cells", "details": "BT474, Transwell, 0, 1, and 10 μL of JAC1, 12 h", "method": "as §1, §2"}, "[4]": {"system": "JWA protein", "test": "Western blot of subcutaneous BT474 tumors, JWA", "type": "in vivo, BALB/c nude mice", "details": "treatment group", "procedure": "BT474 human breast cancer cells in the logarithmic growth phase were suspended in ice-cold suspension buffer for a final concentration of 5×10^6/100 μL, followed by subcutaneous transplantations of the suspended cells into BALB/c nude mice. When the tumor grown up to 75-125 mm^3, the BALB/c nude mice were randomly divided into five equal groups, including a blank control group (Mock), a solvent control group (Vehicle), a 50 mg/kg JAC1 treatment group, a 100 mg/kg JAC1 treatment group, and a positive control group treated with Pacilitaxel and Trastuzumab (TH). Dose and administration: JAC1 was injected intraperitoneally into mice once daily; the dosage of Trastuzumab was 10 mg/kg injected intraperitoneally twice a week; the dosage of Pacilitaxel was 20 mg/kg injected intraperitoneally once a week. From the day of administration, mouse body weights and tumor diameters were measured every other 2 days, and the tumor volume was calculated using an equation. When the mice reached a humane endpoint at which the tumor volume increased to 2500-3000 mm^3, the research based on the mouse models was terminated and the laboratory mice were anesthetized and euthanized in a timely manner to alleviate animal suffering and perform the statistical analysis. […]"}, "[5]": {"system": "JWA protein", "test": "Laser confocal immunofluorescence in HER2-positive breast cancer cells, JWA", "type": "cell-based, human", "details": "immunofluorescence, 0, 1, 10 μM, 24 h", "method": "The cells were inoculated into a 35 mm glass bottom dish, treated with different concentrations (0, 1, and 10 μM) of JAC1 for 24 h, fixed with methanol for 15 min, washed three times with PBST, blocked with normal sheep serum for 1 h, and incubated in primary antibody overnight at 4° C. The cells were then washed three times with PBST, incubated in fluorescent secondary antibody and 4′,6-diamidino-2-phenylindole (DAPI), and photographed using a laser confocal scanning microscopy."}}}
{"smiles": "COc1cccc2sc(Nc3nc4c(F)cccc4s3)nc12", "note": "[JAC1, 4-fluoro-N-(4-methoxybenzene (d)thiazole-2-group) benzene (d) thiazole-2-amine]", "values": [{"measurement": "alanine transaminase (ALT)", "setting": "[1]", "result": "significant decreases"}, {"measurement": "aspartate transaminase (AST)", "setting": "[1]", "result": "significant decreases"}, {"measurement": "creatine kinase (CK)", "setting": "[1]", "result": "significant decreases"}, {"measurement": "creatine kinase isoenzyme (CKMB)", "setting": "[1]", "result": "significant decreases"}, {"measurement": "superoxide dismutase (SOD)", "setting": "[1]", "result": "significantly increased"}, {"measurement": "triglyceride (TG)", "setting": "[1]", "result": "significant decreases"}, {"measurement": "migratory ability", "setting": "[2]", "result": "effectively inhibit the migratory ability"}, {"measurement": "migratory ability", "setting": "[3]", "result": "effectively inhibit the migratory ability"}, {"measurement": "JWA protein level in tumor", "setting": "[4]", "result": "significantly increased"}, {"measurement": "JWA protein level", "setting": "[5]", "result": "JWA protein level increased"}]}
